Results on 15 compounds are retold here after ChEMBL document CHEMBL1143240, “Inhibiting dihydrodipicolinate synthase across species: towards specificity for pathogens?” (Bioorg Med Chem Lett, 2008).

A word on the Ki: it is a dissociation constant, usually derived from enzyme kinetics or from competition with a known ligand. One may read the inhibition as the drop in the measured response relative to a control, in per cent.

Each structure is given as a SMILES string. Calls of active or inactive are those of the source. The rule behind the calls is not given here.

Experiment [1] is described as follows: Inhibition of Escherichia coli DHDPS.
Experiment [2] has as its system Escherichia coli. In words: Inhibition of Escherichia coli NAL at 20 mM.
Experiment [3] addresses T1, Dihydrodipicolinate synthase (Bacillus anthracis) (UniProt A0A6L7H340).
T1 sequence (whole entry): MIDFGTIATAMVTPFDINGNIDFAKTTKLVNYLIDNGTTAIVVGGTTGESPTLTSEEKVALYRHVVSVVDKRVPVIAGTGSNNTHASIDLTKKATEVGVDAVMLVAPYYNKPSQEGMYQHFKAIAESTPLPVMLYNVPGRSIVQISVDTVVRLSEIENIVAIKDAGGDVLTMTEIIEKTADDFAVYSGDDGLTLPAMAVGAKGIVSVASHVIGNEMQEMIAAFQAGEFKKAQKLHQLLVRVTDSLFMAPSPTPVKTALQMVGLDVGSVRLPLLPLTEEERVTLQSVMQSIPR
In words: Inhibition of Bacillus anthracis DHDPS at 20 mM.

Experiment [4] deals with 4-hydroxy-tetrahydrodipicolinate synthase (Mycobacterium tuberculosis) (UniProt P9WP25). Nature of the experiment: Inhibition of Mycobacterium tuberculosis DHDPS at 20 mM.
For experiment [5], the system named is Escherichia coli. In words: Inhibition of Escherichia coli DHDPS at 20 mM.
Experiment [6] has as its system Staphylococcus aureus. In words: Inhibition of methicillin-resistant Staphylococcus aureus DHDPS at 20 mM.
Experiment [7] deals with Escherichia coli. In words: Antibacterial activity against Escherichia coli at 20 uM relative to control. The experiment is classed as functional, organism-based.

On to `CC(=O)C(=O)O` [PYRUVATE], for which affinity in experiment [1] was put at a Ki of 7 mM.
Regarding `COC(=O)[C@@H]1CSC[C@H](C(=O)OC)N1`, the inhibition was determined as 1% in experiment [2]; 23% in experiment [3]; 0% in experiment [4]; 35% in experiment [5]; 0% in experiment [6].
Regarding `O=C(O)[C@@H]1CCC[C@H](C(=O)O)N1`, the inhibition amounted to 21% in experiment [2]; 73% in experiment [3]; 43% in experiment [4]; 49% in experiment [5]; 51% in experiment [6].
With `COC(=O)[C@@H]1CS(=O)(=O)C[C@H](C(=O)OC)N1`, the inhibition in experiment [2] stood at 3%; in experiment [3] it was 19%; in experiment [4], 6%; in experiment [5], 0%; in experiment [6], 0%. For the same compound, in experiment [7], the outcome was inactive.
In the case of `O=C(O)c1cc(=O)cc(C(=O)O)[nH]1`, the inhibition in experiment [2] was 27%; in experiment [3], 0%; in experiment [4], 73%; in experiment [5] it was 74%; in experiment [6], 83%. Besides, the result in experiment [7] was Active.
In the case of `COC(=O)c1cccc(C(=O)OC)n1`, the inhibition in experiment [2] was found to be 0%; in experiment [3], 13%; in experiment [4] it was 0%; in experiment [5], 5%; in experiment [6] it was 0%.
Take `COC(=O)[C@@H]1CCC[C@H](C(=O)OC)N1`: the inhibition worked out at 18% in experiment [2]; 99% in experiment [3]; 24% in experiment [4]; 92% in experiment [5]; 58% in experiment [6].
In the case of `COC(=O)[C@@H]1CS(=O)(=O)C[C@@H](C(=O)OC)N1`, the inhibition in experiment [2] was found to be 0%; in experiment [3], 6%; in experiment [4] it was 7%; in experiment [5] it was 14%; in experiment [6] it was 0%.
Turning to `N[C@@H](CC=O)C(=O)O`, affinity in experiment [1] was put at a Ki of 14 mM.
As for `COC(=O)[C@@H]1CSC[C@@H](C(=O)OC)N1`, the inhibition is 0% in experiment [2]; 19% in experiment [3]; 0% in experiment [4]; 12% in experiment [5]; 0% in experiment [6].
As for `COC(=O)[C@@H]1C[S@+]([O-])C[C@H](C(=O)OC)N1`, the inhibition stood at 38% in experiment [2]; 22% in experiment [3]; 14% in experiment [4]; 20% in experiment [5]; 12% in experiment [6].
On the same counts, the results for `O=C(O)c1cccc(C(=O)O)n1` are 1%, 80%, 75%, 76% and 67%.
In the same order, the values of `COC(=O)[C@@H]1C[S+]([O-])C[C@@H](C(=O)OC)N1` (some centres undefined) are 7%, 7%, 0%, 0% and 7%.
For `COC(=O)c1cc(=O)cc(C(=O)OC)[nH]1`, the inhibition in experiment [2] came out at 64%; in experiment [3], 0%; in experiment [4], 84%; in experiment [5] it was 85%; in experiment [6] it was 88%.
For the compound `COC(=O)[C@@H]1C[S@@+]([O-])C[C@H](C(=O)OC)N1`, the inhibition is 0% in experiment [2]; 8% in experiment [3]; 1% in experiment [4]; 8% in experiment [5]; 10% in experiment [6].
